10 compounds from ChEMBL document CHEMBL2010724, “Oroxylin A analogs exhibited strong inhibitory activities against iNOS-mediated nitric oxide (NO) production” (Bioorg Med Chem Lett, 2012) can be followed below.

For assay [1], the target named is T1, Nitric oxide synthase, inducible (Mus musculus) (UniProt P29477).
T1 sequence (whole entry): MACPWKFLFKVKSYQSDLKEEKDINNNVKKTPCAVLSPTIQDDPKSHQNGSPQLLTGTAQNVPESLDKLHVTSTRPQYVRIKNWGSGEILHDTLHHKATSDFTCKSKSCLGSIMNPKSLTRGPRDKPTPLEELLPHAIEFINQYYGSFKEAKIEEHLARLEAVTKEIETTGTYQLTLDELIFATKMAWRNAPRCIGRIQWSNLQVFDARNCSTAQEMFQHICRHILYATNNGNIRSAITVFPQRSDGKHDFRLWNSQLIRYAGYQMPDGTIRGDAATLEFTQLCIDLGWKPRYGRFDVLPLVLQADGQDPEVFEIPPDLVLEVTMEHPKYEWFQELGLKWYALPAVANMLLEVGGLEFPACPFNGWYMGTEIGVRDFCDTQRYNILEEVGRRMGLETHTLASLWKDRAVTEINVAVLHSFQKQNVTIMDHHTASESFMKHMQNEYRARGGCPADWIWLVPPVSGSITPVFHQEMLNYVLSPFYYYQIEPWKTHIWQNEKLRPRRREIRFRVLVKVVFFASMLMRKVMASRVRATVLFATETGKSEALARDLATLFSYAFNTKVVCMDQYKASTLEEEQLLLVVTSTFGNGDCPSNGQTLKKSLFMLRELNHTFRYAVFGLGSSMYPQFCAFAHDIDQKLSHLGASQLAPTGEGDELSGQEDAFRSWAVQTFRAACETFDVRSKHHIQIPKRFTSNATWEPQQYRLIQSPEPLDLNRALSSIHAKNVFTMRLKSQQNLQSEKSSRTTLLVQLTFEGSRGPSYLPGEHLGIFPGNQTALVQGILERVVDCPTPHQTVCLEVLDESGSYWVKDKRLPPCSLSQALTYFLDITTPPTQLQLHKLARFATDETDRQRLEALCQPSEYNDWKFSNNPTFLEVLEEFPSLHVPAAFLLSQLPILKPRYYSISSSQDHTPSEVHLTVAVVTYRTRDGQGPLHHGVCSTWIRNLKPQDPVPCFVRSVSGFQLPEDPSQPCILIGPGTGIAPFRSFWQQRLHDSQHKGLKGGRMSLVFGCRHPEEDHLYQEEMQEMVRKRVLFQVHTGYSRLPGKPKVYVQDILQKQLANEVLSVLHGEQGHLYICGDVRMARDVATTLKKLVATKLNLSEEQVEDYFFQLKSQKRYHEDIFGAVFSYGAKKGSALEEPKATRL
Put plainly: Inhibition of iNOS-induced NO production in LPS-stimulated mouse BV2 cells at 10 uM after 24 hrs. In kind it is cell-based. The settings on record: BV-2.

In assay [2] the target is T2, Nitric oxide synthase, inducible (Mus musculus, UniProt P29477).
T2 sequence (P29477 whole entry): T1 sequence (whole entry)
Nature of the assay: Inhibition of iNOS-induced NO production in LPS-stimulated mouse BV2 cells after 24 hrs. The assay is classed as cell-based. The settings on record: bv-2.

The inhibition is the change of the read-out against control, counted positive when it falls. One may read the IC50 as the concentration needed to halve the response being measured. Turning to `COc1c(O)cc2oc(-c3ccc([N+](=O)[O-])cc3)cc(=O)c2c1O`, in assay [1], the inhibition amounted to 45.7%. Besides, the IC50 in assay [2] was determined as 4.73 µM.

In assay [1], `COc1c(O)cc2oc(-c3ccc(Cl)c(Cl)c3)cc(=O)c2c1O` gave an inhibition of 13.1%.

Compound `COc1c(O)cc2oc(-c3ccc(F)cc3F)cc(=O)c2c1O` yielded an inhibition in assay [1] of 10.6%.

`COc1c(O)cc2oc(-c3ccc(F)cc3)cc(=O)c2c1O` had an inhibition in assay [1] of 40.8%. In addition, in assay [2], 8.58 µM corresponded to half-maximal inhibition (IC50).

Compound `COc1c(O)cc(O)c2c(=O)cc(-c3ccccc3)oc12` [WOGONIN] came in with an inhibition in assay [1] of 40%. The compound also came in with an IC50 in assay [2] of 7.8 µM.

Take `COc1c(O)cc2oc(-c3cccc(Br)c3)cc(=O)c2c1O`: the inhibition in assay [1] is 45.2%. Moreover, the IC50 in assay [2] is 10.8 µM.

On to `COc1c(O)cc2oc(-c3cccc(F)c3)cc(=O)c2c1O`, for which the inhibition in assay [1] was 39.9%. This compound returned an IC50 in assay [2] of 11.4 µM.

In assay [1], `COc1cc(-c2cc(=O)c3c(O)c(OC)c(O)cc3o2)ccc1O` returned an inhibition of 8.2%.

In turn, `COc1c(O)cc2oc(-c3ccccc3)cc(=O)c2c1O` gave an inhibition in assay [1] of 26%.

`COc1c(O)cc2oc(-c3ccccc3F)cc(=O)c2c1O` had an inhibition in assay [1] of 14.2%.
